Calls of active or inactive are those of the source.
Assays:
Hexokinase HKDC1 = target: T1, Hexokinase HKDC1 (Homo sapiens, UniProt Q2TB90); experiment: inhibition of HKDC1 glucose phosphorylation – biochemical, W721R variant, dose response (AID 504729); type: functional
T1 sequence (Q2TB90 whole entry): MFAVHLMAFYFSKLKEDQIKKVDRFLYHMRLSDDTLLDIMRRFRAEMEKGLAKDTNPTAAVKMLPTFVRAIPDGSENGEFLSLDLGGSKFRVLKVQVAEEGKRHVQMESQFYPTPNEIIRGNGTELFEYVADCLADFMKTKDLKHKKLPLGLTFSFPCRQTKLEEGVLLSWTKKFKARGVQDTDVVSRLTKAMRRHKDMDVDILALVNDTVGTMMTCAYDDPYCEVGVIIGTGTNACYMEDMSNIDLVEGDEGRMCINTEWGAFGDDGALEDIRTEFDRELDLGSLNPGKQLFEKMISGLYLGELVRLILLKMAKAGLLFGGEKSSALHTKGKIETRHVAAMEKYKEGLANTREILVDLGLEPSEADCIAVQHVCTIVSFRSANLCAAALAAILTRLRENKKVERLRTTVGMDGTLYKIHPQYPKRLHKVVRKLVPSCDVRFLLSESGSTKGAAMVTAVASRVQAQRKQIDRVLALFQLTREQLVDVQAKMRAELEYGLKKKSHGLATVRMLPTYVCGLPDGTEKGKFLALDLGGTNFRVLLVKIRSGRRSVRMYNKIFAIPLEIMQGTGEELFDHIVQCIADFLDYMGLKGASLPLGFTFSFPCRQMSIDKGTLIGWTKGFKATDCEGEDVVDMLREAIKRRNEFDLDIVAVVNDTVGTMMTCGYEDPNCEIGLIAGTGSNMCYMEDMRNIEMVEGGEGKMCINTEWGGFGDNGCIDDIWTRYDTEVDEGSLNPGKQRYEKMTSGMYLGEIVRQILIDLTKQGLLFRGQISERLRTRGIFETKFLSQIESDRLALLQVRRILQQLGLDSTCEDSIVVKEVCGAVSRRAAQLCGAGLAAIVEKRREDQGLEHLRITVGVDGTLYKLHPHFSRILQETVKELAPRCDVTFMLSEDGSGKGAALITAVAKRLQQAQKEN

[1] = system: Streptococcus sp. 'group A'; experiment: Streptococcus pyogenes SK(-)GAS viability under kanamycin – luminescence, BacTiterGlo, confirmation, counter-screen for streptokinase expression inhibitor project, dose response (AID 1900); type: functional, organism-based
[2] = target: Serine/threonine-protein phosphatase PP1-alpha catalytic subunit (Homo sapiens, UniProt P62136); experiment: inhibition of protein phosphatase 1 activity – biochemical, fluorescence, dose response (AID 2403);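 also: phosphatase turnover of OMFP into fluorescent 3-O-methylfluorescein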
Streptokinase A = target: T2, Streptokinase A (Streptococcus pyogenes serotype M1, UniProt P10520); experiment: viability-normalized secreted streptokinase activity reduction – plasminogen activation absorbance, OD405, dose response (AID 1914); type: functional, Streptococcus pyogenes M1 GAS;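 also: secreted streptokinase activity via plasminogen activation per viability signal from cell pellet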
T2 sequence (P10520 whole entry): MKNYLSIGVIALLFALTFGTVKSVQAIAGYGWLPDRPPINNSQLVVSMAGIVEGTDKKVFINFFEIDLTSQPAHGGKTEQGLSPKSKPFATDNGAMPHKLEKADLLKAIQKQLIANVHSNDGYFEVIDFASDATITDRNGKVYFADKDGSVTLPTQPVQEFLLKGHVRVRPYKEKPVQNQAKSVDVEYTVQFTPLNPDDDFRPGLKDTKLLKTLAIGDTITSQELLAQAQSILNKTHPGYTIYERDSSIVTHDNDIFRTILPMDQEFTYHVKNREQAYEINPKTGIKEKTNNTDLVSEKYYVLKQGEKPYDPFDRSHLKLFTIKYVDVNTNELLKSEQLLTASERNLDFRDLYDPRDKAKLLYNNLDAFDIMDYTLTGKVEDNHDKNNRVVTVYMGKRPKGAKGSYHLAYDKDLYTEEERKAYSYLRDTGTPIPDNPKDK

[3] = target: Serine/threonine-protein phosphatase (Homo sapiens, UniProt Q9BPW0); experiment: Counterscreen for inhibitors of PP1: fluorescence-based biochemical high throughput dose response assay to identify inhibitors of Protein Phosphatase 5 (PP5). [Related pubchem assays: 2034 (Summary (PP5 inhibitors)), 1987 (PP5 inhibitors in singlate), 2235 (PP1 inhibitors in singlate)]
Streptococcus = experiment: GAS UMAA2166 growth inhibition – luminescence, BacTiterGlo, counter-screen for streptokinase expression inhibitor project, dose response (AID 1915); type: functional, organism-based;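 also: potency for reduction of bacterial viability or growth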
[4] = THP-1 cell cytotoxicity, dose response, cytotoxicity control for non-replicating M. tuberculosis project (AID 489025); type: functional
[5] = Vero E6 cell cytotoxicity, dose response, cytotoxicity control for non-replicating M. tuberculosis project, secondary assay (AID 492998); type: functional, VeroE6; settings: Vero C1008
[6] = target: T3, Microphthalmia-associated transcription factor (Homo sapiens, UniProt O75030); experiment: reducers of TRPM1 reporter luminescence, concentration series – cell-based, SK-MEL-5, cherry-picked, set 3, MITF inhibitor project, dose response (AID 493073); type: functional;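 also: SK-MEL-5 melanoma cells with luciferase driven by the MITF target TRPM1 promoter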
T3 sequence (O75030 whole entry): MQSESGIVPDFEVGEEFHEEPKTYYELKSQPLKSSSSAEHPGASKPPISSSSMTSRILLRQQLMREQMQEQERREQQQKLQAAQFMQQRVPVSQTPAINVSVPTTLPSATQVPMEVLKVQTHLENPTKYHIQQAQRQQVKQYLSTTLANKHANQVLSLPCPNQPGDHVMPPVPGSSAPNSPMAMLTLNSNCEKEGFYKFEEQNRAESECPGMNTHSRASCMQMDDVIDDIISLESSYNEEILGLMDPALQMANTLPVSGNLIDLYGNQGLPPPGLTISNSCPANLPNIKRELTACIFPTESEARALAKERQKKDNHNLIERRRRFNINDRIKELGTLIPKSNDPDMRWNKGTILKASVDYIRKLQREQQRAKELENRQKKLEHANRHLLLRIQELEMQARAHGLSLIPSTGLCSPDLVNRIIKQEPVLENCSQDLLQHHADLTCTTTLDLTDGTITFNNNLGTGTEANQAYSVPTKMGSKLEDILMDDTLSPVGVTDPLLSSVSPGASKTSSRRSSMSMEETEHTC

cells = type: functional
INS1 = experiment: INS-1E survival protection against cytokine death – cell-based, luminescence, retest, dose response (AID 449756); type: functional; settings: Rattus norvegicus;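 also: cell death triggered by IL-1 beta plus TNF-alpha plus IFN-gamma mixture; protective hits raise ATP signal compared with cytokine alone wells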
Vero = experiment: cells; type: functional; settings: Chlorocebus sabaeus
Cytochrome P450 2C19 = Cytochrome P450 2C19 (Homo sapiens, UniProt P33261); experiment: qHTS Assay for Inhibitors and Substrates of Cytochrome P450 2C19. [Related pubchem assays: 410 ]; type: ADME; settings: read-out: Potency
Cytochrome P450 2D6 = Cytochrome P450 2D6 (Homo sapiens, UniProt P10635); experiment: qHTS Assay for Inhibitors and Substrates of Cytochrome P450 2D6. [Related pubchem assays: 410 ]; type: ADME; settings: read-out: Potency
Cytochrome P450 3A4 = Cytochrome P450 3A4 (Homo sapiens, UniProt P08684); settings: Potency;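 also: confirmatory qHTS run detecting inhibitors and substrates of CYP3A4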
Cytochrome P450 2C9 = Cytochrome P450 2C9 (Homo sapiens, UniProt P11712); settings: Potency
[7] = target: Scavenger receptor class B member 1 (Mus musculus, UniProt Q61009); experiment: mouse SR-BI DiI-HDL uptake blockers – ldlA[mSR-BI] cells, fluorescence, cherry pick, dose response (AID 493194); type: functional, cell-based;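 also: cellular uptake of fluorescent DiI-labeled HDL measured as cell fluorescence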
HeLa = experiment: viability loss in HeLa cells – cell-based, 24 h, cherry-picked samples, cytotoxicity control, dose response (AID 504726); type: functional; settings: Homo sapiens;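 also: potency for cytotoxicity as loss of luminescence signal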
ORF 73 = target: T4, ORF 73 (Human herpesvirus 8, UniProt O40947); experiment: KSHV LANA DNA-binding disruption – biochemical, fluorescence polarization, cherry-picked samples, dose response (AID 504725); parameters: species or system Human gammaherpesvirus 8;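 also: fluorescence polarization of a labeled DNA duplex reporting LANA DNA binding; potency is for inhibitors that block LANA binding to the DNA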
T4 sequence (O40947 whole entry): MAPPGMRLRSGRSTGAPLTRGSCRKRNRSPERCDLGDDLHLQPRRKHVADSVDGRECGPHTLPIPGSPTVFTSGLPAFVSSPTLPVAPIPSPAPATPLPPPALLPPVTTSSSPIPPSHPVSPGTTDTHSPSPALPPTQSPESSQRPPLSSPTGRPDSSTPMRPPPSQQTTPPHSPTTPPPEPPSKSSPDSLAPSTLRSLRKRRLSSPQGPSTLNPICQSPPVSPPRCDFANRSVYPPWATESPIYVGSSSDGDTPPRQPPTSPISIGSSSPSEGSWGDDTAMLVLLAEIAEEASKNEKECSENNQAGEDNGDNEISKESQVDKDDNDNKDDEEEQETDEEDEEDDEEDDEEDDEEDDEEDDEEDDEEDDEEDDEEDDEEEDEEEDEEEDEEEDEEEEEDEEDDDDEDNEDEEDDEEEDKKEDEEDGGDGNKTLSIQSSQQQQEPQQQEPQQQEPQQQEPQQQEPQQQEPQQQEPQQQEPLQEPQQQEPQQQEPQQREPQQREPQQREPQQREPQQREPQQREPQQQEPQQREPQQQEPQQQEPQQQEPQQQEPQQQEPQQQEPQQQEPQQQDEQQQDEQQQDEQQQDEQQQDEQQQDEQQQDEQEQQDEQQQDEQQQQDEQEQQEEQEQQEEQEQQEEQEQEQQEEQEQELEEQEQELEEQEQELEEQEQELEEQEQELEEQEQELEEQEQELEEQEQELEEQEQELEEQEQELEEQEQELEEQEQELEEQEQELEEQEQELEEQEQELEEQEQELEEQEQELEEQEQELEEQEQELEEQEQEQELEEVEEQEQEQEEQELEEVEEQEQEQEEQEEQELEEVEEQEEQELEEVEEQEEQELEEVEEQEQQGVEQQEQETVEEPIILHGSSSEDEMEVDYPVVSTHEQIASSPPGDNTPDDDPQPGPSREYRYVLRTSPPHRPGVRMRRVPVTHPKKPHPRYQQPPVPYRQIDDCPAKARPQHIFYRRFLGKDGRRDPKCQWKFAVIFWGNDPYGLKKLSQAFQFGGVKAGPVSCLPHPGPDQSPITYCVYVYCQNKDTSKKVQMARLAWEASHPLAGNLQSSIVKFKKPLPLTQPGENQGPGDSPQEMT

[8] = target: Histone-lysine N-methyltransferase NSD2 (Homo sapiens, UniProt O96028); type: biochemical
[9] = luciferase reporter signal suppression in cells – H4 neuroglioma cells, luminescence, dose response (AID 1990); type: functional, cell-based
[10] = Luminescence Cell-Based Dose Response HTS to Identify Inhibitors of 5'UTR Stem-Loop Driven Prion Protein mRNA Translation in H4 Neuroglioblastoma Cells. [Related pubchem assays: 1827 (Project Summary), 1813 (Primary HTS)]; type: functional
[11] = alpha-synuclein stem-loop luciferase translation blockers – H4 neuroglioma cells, luminescence, confirmation (AID 1988); type: functional, cell-based

Sequence of Cytochrome P450 2C19 (P33261 whole entry): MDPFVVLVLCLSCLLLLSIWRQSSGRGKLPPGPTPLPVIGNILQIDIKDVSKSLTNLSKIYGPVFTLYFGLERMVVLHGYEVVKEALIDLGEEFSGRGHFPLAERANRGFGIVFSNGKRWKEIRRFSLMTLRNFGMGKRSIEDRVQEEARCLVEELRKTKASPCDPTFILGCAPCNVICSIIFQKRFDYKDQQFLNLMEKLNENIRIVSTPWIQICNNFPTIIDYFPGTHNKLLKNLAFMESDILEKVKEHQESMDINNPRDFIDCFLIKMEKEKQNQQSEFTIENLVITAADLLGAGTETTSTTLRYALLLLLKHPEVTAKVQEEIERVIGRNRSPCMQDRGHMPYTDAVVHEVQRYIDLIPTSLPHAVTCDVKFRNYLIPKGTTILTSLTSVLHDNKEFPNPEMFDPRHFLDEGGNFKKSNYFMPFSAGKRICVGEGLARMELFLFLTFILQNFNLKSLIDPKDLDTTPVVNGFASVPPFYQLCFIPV
Sequence of Cytochrome P450 2C9 (P11712 whole entry): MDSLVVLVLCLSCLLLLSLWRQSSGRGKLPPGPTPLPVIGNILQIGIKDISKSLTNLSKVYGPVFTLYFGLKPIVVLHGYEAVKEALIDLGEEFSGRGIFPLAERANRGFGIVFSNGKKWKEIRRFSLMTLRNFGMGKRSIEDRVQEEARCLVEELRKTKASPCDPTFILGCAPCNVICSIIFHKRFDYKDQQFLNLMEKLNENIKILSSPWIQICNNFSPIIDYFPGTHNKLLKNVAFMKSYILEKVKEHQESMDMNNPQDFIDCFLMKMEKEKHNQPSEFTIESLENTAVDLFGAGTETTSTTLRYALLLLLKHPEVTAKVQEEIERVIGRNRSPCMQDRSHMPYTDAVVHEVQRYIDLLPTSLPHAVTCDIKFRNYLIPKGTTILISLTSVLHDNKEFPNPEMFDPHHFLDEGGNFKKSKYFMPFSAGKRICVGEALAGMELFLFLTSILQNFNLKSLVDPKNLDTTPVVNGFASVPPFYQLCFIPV
Sequence of Scavenger receptor class B member 1 (Q61009 whole entry): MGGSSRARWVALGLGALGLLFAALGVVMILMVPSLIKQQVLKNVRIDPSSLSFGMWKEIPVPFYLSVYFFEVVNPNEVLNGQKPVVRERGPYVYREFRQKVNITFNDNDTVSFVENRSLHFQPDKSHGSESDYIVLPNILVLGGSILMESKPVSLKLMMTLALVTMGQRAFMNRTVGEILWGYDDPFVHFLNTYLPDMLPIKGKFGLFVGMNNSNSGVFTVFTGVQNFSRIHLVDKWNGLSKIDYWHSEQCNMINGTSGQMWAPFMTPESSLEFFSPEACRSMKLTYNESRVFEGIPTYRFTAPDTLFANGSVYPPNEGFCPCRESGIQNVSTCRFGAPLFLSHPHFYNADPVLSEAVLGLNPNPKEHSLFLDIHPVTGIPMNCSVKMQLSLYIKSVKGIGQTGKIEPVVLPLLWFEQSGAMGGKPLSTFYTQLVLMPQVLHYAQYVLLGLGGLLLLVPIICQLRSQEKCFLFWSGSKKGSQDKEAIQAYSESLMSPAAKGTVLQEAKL
Sequence of Cytochrome P450 2D6 (P10635 whole entry): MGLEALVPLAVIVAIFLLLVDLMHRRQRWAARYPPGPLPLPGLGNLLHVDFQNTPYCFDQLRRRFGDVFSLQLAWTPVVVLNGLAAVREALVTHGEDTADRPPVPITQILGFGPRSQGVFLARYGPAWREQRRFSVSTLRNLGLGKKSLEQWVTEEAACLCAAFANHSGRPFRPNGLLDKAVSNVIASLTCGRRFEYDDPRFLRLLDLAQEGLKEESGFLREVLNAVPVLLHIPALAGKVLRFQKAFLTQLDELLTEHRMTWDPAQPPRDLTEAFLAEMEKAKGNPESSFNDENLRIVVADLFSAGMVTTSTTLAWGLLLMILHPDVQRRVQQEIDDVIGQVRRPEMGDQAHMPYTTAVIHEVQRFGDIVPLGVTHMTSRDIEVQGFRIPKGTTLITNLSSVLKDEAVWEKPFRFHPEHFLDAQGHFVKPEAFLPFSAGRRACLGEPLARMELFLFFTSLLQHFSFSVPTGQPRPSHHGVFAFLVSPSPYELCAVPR
Sequence of Serine/threonine-protein phosphatase PP1-alpha catalytic subunit (P62136 whole entry): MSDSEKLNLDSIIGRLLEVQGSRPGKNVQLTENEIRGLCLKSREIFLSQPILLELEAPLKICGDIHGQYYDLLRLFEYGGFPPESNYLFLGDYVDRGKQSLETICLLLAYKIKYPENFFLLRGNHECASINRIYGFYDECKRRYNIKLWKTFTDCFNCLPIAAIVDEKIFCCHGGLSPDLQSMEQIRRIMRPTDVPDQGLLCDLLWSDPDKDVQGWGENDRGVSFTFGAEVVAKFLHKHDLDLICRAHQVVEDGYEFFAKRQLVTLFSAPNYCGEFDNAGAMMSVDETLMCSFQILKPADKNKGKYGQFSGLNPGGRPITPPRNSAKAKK
Sequence of Cytochrome P450 3A4 (P08684 whole entry): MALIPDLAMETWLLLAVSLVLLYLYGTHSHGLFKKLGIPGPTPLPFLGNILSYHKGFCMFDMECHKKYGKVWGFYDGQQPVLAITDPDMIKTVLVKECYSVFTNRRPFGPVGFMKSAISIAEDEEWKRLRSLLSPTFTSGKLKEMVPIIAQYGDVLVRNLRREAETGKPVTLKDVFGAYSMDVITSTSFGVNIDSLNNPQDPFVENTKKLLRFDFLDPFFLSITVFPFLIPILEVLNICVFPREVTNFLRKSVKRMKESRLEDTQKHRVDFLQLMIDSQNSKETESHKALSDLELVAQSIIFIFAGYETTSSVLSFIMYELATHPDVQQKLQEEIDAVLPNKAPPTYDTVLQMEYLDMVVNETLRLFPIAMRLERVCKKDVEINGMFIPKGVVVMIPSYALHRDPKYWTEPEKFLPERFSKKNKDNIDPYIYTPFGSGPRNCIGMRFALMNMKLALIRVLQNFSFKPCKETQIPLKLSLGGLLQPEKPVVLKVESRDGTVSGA
Sequence of Serine/threonine-protein phosphatase (Q9BPW0 whole entry): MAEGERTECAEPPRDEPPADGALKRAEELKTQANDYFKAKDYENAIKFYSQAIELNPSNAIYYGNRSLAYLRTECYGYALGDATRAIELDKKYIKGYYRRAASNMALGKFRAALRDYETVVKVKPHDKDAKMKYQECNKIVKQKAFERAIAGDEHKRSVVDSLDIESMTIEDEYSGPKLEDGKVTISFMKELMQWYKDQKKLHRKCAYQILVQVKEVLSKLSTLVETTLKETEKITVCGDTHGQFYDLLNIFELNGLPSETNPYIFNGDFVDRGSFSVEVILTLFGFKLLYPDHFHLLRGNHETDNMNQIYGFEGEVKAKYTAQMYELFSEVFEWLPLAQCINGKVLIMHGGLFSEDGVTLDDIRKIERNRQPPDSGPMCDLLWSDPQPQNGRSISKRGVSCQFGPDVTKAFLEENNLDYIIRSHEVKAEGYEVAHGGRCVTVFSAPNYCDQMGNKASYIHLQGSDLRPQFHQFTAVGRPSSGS
Sequence of Histone-lysine N-methyltransferase NSD2 (O96028 whole entry): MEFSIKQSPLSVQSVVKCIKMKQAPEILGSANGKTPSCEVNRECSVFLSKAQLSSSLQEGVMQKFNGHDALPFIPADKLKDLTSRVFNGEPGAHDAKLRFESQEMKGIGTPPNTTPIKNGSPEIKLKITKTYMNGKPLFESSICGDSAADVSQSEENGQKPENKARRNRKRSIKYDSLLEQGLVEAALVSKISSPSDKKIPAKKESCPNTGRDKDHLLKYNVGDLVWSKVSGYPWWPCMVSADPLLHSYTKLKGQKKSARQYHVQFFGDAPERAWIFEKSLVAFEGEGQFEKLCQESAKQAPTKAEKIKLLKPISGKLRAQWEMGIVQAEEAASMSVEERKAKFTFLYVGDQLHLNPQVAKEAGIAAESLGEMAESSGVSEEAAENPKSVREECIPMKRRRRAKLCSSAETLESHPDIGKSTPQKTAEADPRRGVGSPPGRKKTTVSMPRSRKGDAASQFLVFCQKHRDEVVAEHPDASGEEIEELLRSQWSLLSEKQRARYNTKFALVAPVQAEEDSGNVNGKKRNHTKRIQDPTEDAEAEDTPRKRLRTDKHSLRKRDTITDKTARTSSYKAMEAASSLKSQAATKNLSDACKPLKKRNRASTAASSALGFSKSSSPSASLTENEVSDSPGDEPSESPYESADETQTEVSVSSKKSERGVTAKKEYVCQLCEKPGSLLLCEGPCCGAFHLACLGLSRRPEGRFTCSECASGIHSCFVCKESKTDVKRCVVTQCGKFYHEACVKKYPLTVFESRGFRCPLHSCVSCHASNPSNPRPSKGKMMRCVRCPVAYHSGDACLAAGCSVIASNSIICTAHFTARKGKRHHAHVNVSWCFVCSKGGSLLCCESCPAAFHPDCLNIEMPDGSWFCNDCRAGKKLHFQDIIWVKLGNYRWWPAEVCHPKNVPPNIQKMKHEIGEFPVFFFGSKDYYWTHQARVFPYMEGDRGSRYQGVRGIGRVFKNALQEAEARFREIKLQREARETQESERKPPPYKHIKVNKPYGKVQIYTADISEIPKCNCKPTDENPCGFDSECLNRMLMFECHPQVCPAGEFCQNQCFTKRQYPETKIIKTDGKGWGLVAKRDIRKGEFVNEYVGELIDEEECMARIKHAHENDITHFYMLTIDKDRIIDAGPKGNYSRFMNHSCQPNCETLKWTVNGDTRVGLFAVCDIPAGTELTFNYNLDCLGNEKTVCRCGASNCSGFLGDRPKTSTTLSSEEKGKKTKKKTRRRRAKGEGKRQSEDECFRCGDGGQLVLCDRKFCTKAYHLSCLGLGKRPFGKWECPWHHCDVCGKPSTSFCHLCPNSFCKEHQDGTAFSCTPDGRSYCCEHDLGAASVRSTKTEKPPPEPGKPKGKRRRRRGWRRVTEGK

CCOC(=O)c1ccc(NC(=O)CSc2ccc(-c3ccccn3)nn2)cc1
IC50 (Hexokinase HKDC1): 2.31 µM (active)

COc1ccc(/C=N/Nc2cc(C)nc(-n3nc(C)cc3C)n2)c(OC)c1
EC50 [1]: 9.67 µM (active) | IC50 [2]: 6.68 µM (active) | EC50 (Streptokinase A): > 150 µM (not active) | IC50 [3]: > 67 µM (not active) | EC50 (Streptococcus): 13.8 µM (active) | CC50 [4]: 5.91 µM (active) | CC50 [5]: 7.06 µM (active) | AC50 [6]: 10.4 µM (active) | IC50 (cells): 0.24 µM (active) | AC50 (INS1): 2.67 µM (active) | CC50 (Vero): 19.8 µM (active)

COC(=O)NC(/C(C(=O)OC)=C(\C)NCc1ccccc1)c1cccs1 (centres undefined)
AC50 (Cytochrome P450 2C19): 0.0316 µM (inconclusive) | AC50 (Cytochrome P450 2D6): 3.98 µM (inconclusive) | AC50 (Cytochrome P450 3A4): 3.98 µM (inconclusive) | AC50 (Cytochrome P450 2C9): 7.94 µM (inconclusive)

O=C(c1cn(-c2ccccc2)nc1-c1cccc([N+](=O)[O-])c1)N1CCCCC1
AC50 [7]: 23.6 µM (active)

CC(=O)OCC1OC(C#Cc2ccc(C)cc2C)C=CC1OC(C)=O (centres undefined)
AC50 (Cytochrome P450 2C19): 1.58 µM (inconclusive) | AC50 (Cytochrome P450 2C9): 2.51 µM (inconclusive)

O=C1CCCC(=O)C1=NNc1ccc(C(=O)O)cc1
AC50 (HeLa): > 350 µM (inactive) | AC50 (ORF 73): 30.2 µM (active) | AC50 [8]: 10.3 µM (active)

O=C(Nc1cccc(NC(=O)c2cc([N+](=O)[O-])ccc2Cl)n1)c1cc([N+](=O)[O-])ccc1Cl
EC50 [9]: 15.3 µM (active) | EC50 [10]: > 60 µM (not active) | EC50 [11]: 8.35 µM (active) | AC50 [7]: 20.2 µM (active) | AC50 (INS1): 6.4 µM (active)

COc1ccc(-c2coc3cc(O)ccc3c2=O)cc1 [FORMONONETIN]
AC50 (Cytochrome P450 2C19): 7.94 µM (inconclusive) | AC50 (Cytochrome P450 2D6): 10 µM (inconclusive)

From ChEMBL document CHEMBL1201862, “PubChem BioAssay data set” (2004)
